Key:
[1] = target: T1, Isopentenyl-diphosphate Delta-isomerase (Escherichia coli (strain K12), UniProt Q46822); experiment: Inhibition of Escherichia coli IPP isomerase
T1 sequence (Q46822 whole entry): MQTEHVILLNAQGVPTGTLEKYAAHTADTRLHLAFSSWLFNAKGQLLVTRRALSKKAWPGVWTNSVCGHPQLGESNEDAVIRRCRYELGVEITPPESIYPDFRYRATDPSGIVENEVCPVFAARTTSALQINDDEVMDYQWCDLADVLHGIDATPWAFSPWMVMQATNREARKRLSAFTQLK

[2] = Binding affinity to IPP isomerase (unknown origin) assessed as dissociation constant; design: species or system Homo sapiens
[3] = target: T1, Isopentenyl-diphosphate Delta-isomerase; experiment: Binding affinity to Escherichia coli IPP isomerase assessed as inhibition constant
[4] = target: T1, Isopentenyl-diphosphate Delta-isomerase; experiment: Competitive inhibition of Escherichia coli IPP isomerase assessed as inhibition constant by Lineweaver-burk plot analysis

SMILES	IC50 [1] [µM]	Kd [2] [µM]	Ki [3] [µM]	Ki [4] [µM]
NC(N)=NCP(=O)(O)CP(=O)(O)O	–	1.2	0.12	–
N=C(N)NCCP(=O)(O)CP(=O)(O)O	0.7	–	0.129	0.129
CN(C)CCCP(=O)(O)CP(=O)(O)O	33	–	–	–
CN(C)CCCC(=O)NS(C)(=O)=O	> 5000	–	–	–

More lines, main results first:

IC50 [1] [µM]	SMILES	Kd [2] [µM]	Ki [3] [µM]	Ki [4] [µM]
670	N=C(N)NCCC(=O)NO	–	–	–
1200	CS(=O)(=O)NC(=O)CCNC(=N)N	–	–	–
